Test results: publication PMC4076210, “Discovery of Novel AKT Inhibitors with Enhanced Anti-Tumor Effects in Combination with the MEK Inhibitor” (PLoS ONE, 2014)
Read-outs that look alike come from different tables or passages of the source.

Legend:
DDR2(h) = biological target: T1, DDR2(h) (Homo sapiens, UniProt Q16832); assay: Kinase panel; assay type: biochemical
T1 construct: purchased Millipore KinaseProfiler
T1 sequence (Q16832 22-855): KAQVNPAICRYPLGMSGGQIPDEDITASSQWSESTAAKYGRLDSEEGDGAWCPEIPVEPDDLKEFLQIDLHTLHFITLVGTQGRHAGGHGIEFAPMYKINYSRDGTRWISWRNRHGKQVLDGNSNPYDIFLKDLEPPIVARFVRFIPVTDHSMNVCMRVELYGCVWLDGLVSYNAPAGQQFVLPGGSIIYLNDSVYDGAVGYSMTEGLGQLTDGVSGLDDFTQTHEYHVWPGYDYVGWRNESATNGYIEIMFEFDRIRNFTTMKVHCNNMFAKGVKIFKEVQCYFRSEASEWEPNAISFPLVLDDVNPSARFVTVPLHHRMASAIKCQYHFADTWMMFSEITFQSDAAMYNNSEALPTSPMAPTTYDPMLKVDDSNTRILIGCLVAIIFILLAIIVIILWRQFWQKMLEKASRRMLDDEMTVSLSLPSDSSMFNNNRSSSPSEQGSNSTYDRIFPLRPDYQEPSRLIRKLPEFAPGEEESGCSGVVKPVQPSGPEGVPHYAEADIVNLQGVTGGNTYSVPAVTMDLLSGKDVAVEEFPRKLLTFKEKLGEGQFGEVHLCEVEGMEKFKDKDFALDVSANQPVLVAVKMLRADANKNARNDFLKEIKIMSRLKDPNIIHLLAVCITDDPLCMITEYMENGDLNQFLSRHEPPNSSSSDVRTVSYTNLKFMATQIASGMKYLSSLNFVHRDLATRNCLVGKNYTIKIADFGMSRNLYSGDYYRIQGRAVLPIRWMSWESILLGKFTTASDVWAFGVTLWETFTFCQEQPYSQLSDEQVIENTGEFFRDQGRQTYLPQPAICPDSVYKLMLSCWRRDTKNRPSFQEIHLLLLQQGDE

[1] = test system: phospho-PRAS40 in BT474 tumor xenografts; assay: In vivo dose response pharmacodynamic assay (phospho-PRAS40 ELISA); set-up: species or system mouse; conditions: 2 h post last dose
Protocol: Protein lysates were analyzed by phospho-PRAS40 ELISA according to the methods described above. Concentration of the test compounds in the tissue and blood was analyzed using protein precipitation with acetonitrile, followed by HPLC/MS/MS analysis using positive ion atmospheric pressure chemical ionization or Turbo ionspray ionization (API 4000 or API 5000, Applied Biosystems). The lower level of detection of compound was 10 ng/mL and the assays were linear over a 100- to a 1000-fold drug concentration range.

MuSK(h) = biological target: T2, MuSK(h) (Homo sapiens, UniProt O15146); assay: Kinase panel; assay type: biochemical
T2 construct: purchased Millipore KinaseProfiler
T2 sequence (O15146 24-869): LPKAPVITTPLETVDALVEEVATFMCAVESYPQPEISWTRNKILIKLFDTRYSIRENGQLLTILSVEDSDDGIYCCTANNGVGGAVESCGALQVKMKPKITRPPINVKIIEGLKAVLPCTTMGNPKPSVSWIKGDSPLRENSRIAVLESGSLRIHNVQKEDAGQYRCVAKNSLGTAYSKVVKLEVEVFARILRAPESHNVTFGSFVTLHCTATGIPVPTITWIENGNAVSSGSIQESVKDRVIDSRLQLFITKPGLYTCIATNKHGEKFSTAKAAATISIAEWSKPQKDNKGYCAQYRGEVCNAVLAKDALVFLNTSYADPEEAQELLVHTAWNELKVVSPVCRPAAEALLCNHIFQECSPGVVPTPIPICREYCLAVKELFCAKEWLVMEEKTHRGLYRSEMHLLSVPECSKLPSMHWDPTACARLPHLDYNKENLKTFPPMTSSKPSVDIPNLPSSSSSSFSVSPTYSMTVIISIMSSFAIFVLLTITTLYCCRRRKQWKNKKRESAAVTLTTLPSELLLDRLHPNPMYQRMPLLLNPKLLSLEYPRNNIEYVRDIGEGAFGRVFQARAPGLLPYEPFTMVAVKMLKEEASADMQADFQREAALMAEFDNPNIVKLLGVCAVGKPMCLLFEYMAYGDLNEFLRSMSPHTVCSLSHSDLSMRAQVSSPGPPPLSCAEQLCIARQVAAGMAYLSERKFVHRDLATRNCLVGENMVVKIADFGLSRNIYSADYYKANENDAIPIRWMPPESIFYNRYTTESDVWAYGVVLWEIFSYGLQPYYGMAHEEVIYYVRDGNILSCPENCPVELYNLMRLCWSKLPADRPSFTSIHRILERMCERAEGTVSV

GRK5(h) = biological target: T3, GRK5(h) (Homo sapiens, UniProt P34947); assay: Kinase panel; assay type: biochemical
T3 construct: purchased Millipore KinaseProfiler

TrkA(h) = biological target: T4, TrkA(h) (Homo sapiens, UniProt P04629); assay: Kinase panel; assay type: biochemical
T4 construct: purchased Millipore KinaseProfiler

NEK2(h) = biological target: T5, NEK2(h) (Homo sapiens, UniProt P51955); assay: Kinase panel; assay type: biochemical
T5 construct: purchased Millipore KinaseProfiler
T5 sequence (P51955 1-445): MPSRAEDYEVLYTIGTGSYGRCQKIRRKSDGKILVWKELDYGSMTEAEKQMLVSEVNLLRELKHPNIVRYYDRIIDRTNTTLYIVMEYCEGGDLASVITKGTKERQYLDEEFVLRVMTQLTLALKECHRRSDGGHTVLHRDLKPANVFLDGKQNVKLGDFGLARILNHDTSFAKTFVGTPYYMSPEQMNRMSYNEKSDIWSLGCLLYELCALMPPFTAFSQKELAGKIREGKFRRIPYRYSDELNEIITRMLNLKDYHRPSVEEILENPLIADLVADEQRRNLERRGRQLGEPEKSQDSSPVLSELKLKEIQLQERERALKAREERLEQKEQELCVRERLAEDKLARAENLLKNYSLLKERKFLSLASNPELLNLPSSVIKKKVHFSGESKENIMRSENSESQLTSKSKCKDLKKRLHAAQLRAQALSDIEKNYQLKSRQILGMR

PKCα = PKCα (Homo sapiens, UniProt P17252); assay: Kinase IC50 assay; assay type: biochemical
CHK2(h) = biological target: T6, CHK2(h) (Homo sapiens, UniProt O96017); assay: Kinase panel; assay type: biochemical
T6 construct: purchased Millipore KinaseProfiler
T6 sequence (O96017 whole entry): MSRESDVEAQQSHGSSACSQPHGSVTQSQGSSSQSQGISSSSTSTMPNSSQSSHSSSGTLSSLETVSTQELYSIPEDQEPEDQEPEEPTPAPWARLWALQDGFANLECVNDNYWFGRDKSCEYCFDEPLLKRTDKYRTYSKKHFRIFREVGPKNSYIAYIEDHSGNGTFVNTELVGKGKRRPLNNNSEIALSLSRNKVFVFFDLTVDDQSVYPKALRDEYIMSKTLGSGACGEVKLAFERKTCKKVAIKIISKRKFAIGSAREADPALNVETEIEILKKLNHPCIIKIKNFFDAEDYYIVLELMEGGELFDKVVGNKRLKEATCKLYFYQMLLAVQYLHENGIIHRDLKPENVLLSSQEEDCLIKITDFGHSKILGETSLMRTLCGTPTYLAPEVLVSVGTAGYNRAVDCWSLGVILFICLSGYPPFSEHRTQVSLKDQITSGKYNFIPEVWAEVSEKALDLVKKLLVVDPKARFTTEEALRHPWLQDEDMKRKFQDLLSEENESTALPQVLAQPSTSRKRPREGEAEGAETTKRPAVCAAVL

T4 sequence (P04629 33-796): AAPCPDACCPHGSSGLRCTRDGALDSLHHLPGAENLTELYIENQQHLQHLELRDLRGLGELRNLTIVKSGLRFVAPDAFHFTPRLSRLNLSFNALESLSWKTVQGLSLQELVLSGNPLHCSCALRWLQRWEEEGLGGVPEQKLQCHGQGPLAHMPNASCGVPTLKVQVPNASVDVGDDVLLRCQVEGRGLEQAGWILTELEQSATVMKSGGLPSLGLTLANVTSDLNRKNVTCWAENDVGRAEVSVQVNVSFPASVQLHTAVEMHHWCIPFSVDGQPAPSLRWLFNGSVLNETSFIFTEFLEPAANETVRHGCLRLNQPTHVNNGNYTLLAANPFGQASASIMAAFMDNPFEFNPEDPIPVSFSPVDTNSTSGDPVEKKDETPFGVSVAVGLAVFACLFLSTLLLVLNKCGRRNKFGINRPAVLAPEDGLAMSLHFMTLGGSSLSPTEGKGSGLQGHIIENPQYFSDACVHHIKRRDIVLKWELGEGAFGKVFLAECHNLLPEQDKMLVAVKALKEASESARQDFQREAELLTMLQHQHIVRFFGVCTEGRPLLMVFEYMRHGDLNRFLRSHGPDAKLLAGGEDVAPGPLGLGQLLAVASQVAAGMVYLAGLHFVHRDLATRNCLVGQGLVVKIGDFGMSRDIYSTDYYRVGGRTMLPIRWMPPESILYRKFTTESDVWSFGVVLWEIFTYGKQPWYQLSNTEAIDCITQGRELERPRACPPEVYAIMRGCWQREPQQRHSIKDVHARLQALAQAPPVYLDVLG
T3 sequence (P34947 whole entry): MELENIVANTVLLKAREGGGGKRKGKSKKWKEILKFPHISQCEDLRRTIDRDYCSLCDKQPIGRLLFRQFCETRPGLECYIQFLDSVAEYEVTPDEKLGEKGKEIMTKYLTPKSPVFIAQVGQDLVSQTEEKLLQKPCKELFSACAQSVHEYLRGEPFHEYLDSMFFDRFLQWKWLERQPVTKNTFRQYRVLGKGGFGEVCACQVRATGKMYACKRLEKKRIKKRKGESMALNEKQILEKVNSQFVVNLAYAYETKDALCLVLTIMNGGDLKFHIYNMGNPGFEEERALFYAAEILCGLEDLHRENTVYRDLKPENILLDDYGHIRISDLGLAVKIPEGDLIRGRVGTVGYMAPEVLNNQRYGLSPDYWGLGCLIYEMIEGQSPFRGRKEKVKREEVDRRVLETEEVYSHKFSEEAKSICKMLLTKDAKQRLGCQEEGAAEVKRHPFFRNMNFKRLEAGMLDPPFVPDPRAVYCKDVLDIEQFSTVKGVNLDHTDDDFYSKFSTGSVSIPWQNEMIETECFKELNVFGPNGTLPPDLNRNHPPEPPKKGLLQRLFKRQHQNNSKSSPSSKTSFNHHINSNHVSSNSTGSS

With Cn1ncc(Cl)c1-c1cc(C(=O)N[C@H](CN)Cc2cccc(F)c2)sc1Cl [GSK2110183] as the compound, how does the inhibition at 0.5 µM (DDR2(h)) read?
Its inhibition at 0.5 µM is 1%.

What about the inhibition at 10 µM (DDR2(h)) of the same compound?
The inhibition at 10 µM was 6%.

What about the “decrease of PRAS40 phosphorylation in tumors” value (from here on “decrease”) ([1]; 10 mg/kg QDx7 oral) of the same compound?
The value was 8%.

And the “decrease” value ([1]; 30 mg/kg QDx7 oral)?
The value was 37%.

And the “decrease” value ([1]; 100 mg/kg QDx7 oral)?
Its value is 61%.

And the inhibition at 0.5 µM (MuSK(h))?
The inhibition at 0.5 µM was -25%.

And the inhibition at 10 µM (MuSK(h))?
Its inhibition at 10 µM is -20%.

And the inhibition at 0.5 µM (GRK5(h))?
The inhibition at 0.5 µM was -8%.

What about the inhibition at 10 µM (GRK5(h)) of the same compound?
The inhibition at 10 µM was -1%.

And the inhibition at 0.5 µM (TrkA(h))?
The inhibition at 0.5 µM was 9%.

And the inhibition at 10 µM (TrkA(h))?
Its inhibition at 10 µM is 69%.

And the inhibition at 0.5 µM (NEK2(h))?
The inhibition at 0.5 µM was -10%.

What about the inhibition at 10 µM (NEK2(h)) of the same compound?
The inhibition at 10 µM was -8%.

What about the IC50 (PKCα) of the same compound?
Its IC50 is over 1000 nM.

What about the inhibition at 0.5 µM (CHK2(h)) of the same compound?
The inhibition at 0.5 µM was 39%.

And the inhibition at 10 µM (CHK2(h))?
The inhibition at 10 µM was 97%.

What does the source list for Cn1ncc(Cl)c1-c1cc(C(=O)N[C@H](CN)Cc2ccc(F)c(F)c2)oc1Cl [GSK2141795]?
inhibition at 0.5 µM (DDR2(h); 0.5 µM, read-out: % Inhibition): 3%; inhibition at 10 µM (DDR2(h); 10 µM, read-out: % Inhibition): 12%; decrease of PRAS40 phosphorylation in tumors ([1]; 30 mg/kg QDx7 oral): 62%; inhibition at 0.5 µM (MuSK(h); 0.5 µM, read-out: % Inhibition): -11%; inhibition at 10 µM (MuSK(h); 10 µM, read-out: % Inhibition): -2%; inhibition at 0.5 µM (GRK5(h); 0.5 µM, read-out: % Inhibition): 4%; inhibition at 10 µM (GRK5(h); 10 µM, read-out: % Inhibition): 43%; inhibition at 0.5 µM (TrkA(h); 0.5 µM, read-out: % Inhibition): -13%; inhibition at 10 µM (TrkA(h); 10 µM, read-out: % Inhibition): 63%; inhibition at 0.5 µM (NEK2(h); 0.5 µM, read-out: % Inhibition): -4%; inhibition at 10 µM (NEK2(h); 10 µM, read-out: % Inhibition): 2%; IC50 (PKCα): > 1000 nM; inhibition at 0.5 µM (CHK2(h); 0.5 µM, read-out: % Inhibition): 36%; inhibition at 10 µM (CHK2(h); 10 µM, read-out: % Inhibition): 91%
